In one experiment the test system is HeLa cells. Put plainly: Cytotoxicity of the combination of 10a and topotecan on HeLa cells. The class given is cell-based, human. The text has this: TDP1 is able to cleave the TOP1–DNA complex, thus preventing the action of Tpc and decreasing the efficiency of this clinically used drug. The inhibition of TDP1 activity can increase the efficiency of Tpc. Next, we checked the cytotoxic effect of the combination of Tpc and examined the TDP1 inhibitors compared to Tpc alone on HeLa cells and HEK293 cells.
We observed the suppressed cell growth in the joint presence of the TDP1 inhibitor and Tpc on HeLa cells compared to Tpc alone (Figure 5). We observed the synergistic effect both when we titrated 10a with addition of fixed Tpc (1 μM or 2 μM) and vice versa when we titrated Tpc with addition of fixed 10a (5 μM). […] The CC50 value of Tpc decreased from 2 μM (only Tpc) to 0.7 μM (Tpc with 5 μM 10a).
Cytotoxicity of the compounds was examined against human cell lines HEK293A (human embryonic kidney)—WT, TDP1 deficient (Tdp1-/-), PARP1 deficient (PARP1-/-), and HeLa (cervical cancer) using an EZ4U colorimetric test (Biomedica, Vienna, Austria). The HEK293A cell line was obtained from Thermo Fisher Scientific (Waltham, MA, USA), and the HeLa cell line was obtained from the Russian Cell Culture Collection (RCCC) Institute of Cytology RAS, St. Petersburg, Russia. The cells were grown in DMEM/F12 medium (Gibco, Thermo Fisher Scientific, Waltham, MA, USA), with 1x GlutaMAX (Gibco, Thermo Fisher Scientific, Waltham, MA, USA), 50 IU/mL penicillin, 50 μg/mL streptomycin (MP Biomedicals), and in the presence of 10% fetal bovine serum (Biolot, Saint-Petersburg, Russia) in a 5% CO2 atmosphere. Cells were grown in the presence of 1% DMSO in the control wells. After the formation of a 30–50% monolayer, the tested compounds were added to the medium, and the cell culture was monitored for 3 days. The values were normalized to their own control in each case. At least three independent experiments were carried out. […] The compound concentration that caused 50% cell growth inhibition was determined using OriginPro 8.6.0 software (OriginLab, Northampton, MA, USA). […]

The target of the next experiment is T1, TDP1 (Homo sapiens, UniProt Q9NUW8).
T1 construct: made in house; host or cells: E. coli
T1 sequence (Q9NUW8 whole entry): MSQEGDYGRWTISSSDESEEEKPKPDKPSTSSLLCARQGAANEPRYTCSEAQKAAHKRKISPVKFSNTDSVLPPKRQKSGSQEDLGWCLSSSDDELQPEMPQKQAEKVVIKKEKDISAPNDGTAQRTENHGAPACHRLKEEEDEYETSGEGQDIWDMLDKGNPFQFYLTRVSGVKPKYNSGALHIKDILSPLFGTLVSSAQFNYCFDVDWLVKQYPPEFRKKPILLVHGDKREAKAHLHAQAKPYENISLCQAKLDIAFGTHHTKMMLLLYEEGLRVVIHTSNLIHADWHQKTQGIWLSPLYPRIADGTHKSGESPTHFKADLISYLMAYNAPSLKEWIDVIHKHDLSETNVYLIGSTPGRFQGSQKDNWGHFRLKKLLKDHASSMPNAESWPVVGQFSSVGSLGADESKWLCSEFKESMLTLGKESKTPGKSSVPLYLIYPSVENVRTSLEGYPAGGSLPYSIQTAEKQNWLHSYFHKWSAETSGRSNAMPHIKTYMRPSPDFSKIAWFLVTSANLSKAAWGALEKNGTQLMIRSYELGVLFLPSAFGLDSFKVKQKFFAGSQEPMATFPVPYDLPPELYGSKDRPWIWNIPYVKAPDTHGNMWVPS
In words: Real-time fluorescence assay of TDP1 activity. The class given is biochemical. The text has this: We tested UA and all 14 newly synthesized UA derivatives for their TDP1 inhibitory properties by measuring their IC50 values using a real-time fluorescent assay. […] Compounds 10a,b are sulfoxide analogs of 7g,h.
Human recombinant tyrosyl-DNA phosphodiesterase 1 (TDP1) and human recombinant poly(ADP-ribose)-polymerase1 (PARP1) were expressed in the E. coli system and purified as described.
The biosensor (5′-[FAM] AAC GTC AGGGTC TTC C [BHQ]-3′) was synthesized in the Laboratory of Nucleic Acid Chemistry at the Institute of Chemical Biology and Fundamental Medicine (Novosibirsk, Russia) and was used for TDP1 enzyme activity real-time fluorescence detection. The reaction mixture (200 μL) contained a TDP1 reaction buffer (50 mM Tris-HCl, pH 8.0, 50 mM NaCl, and 7 mM β-mercaptoethanol), 50 nM oligonucleotide, varied concentrations of the tested compounds, and purified TDP1 in a final concentration 1.5 nM. The reaction mixtures were incubated at a constant temperature of 26 °C in a POLARstar OPTIMA fluorimeter (BMG LABTECH, GmbH, Ortenberg, Germany). Fluorescence intensity was measured (Ex485/Em520 nm) every 1 min for 10 min. The average values of the half maximal inhibitory concentration (IC50) were determined using an eleven-point concentration response curve and calculated using MARS Data Analysis 2.0 (BMG LABTECH). The 50% inhibitory concentration (IC50) was defined as the concentration of the compound that inhibited 50% of the enzyme activity when compared to the untreated controls. At least three independent experiments were carried out to obtain the IC50 values. To determine the kinetic parameters of the TDP1 enzymatic reaction, the apparent maximum rate of enzymatic reaction (Vmax), Michaelis constant (KM), possible inhibition mechanism, and steady-state kinetic experiments were carried out at 5 fixed concentrations of the substrate, with variation in the inhibitor concentrations. The standard reaction mixtures (200 μL) contained reaction buffer components; 50 nM, 100 nM, 200 nM, 500 nM, or 1000 nM substrate; an inhibitor; and 1.5 nM recombinant human TDP1. The initial kinetic curves were obtained in three independent experiments and statistically processed in OriginPro 8.6.0 (OriginLab, Northampton, MA, USA).

Like-named read-outs stand apart in the source and are kept apart here.

The term CC50 denotes the concentration that lowers cell viability or growth by half. What is called IC50 is the concentration that gives 50% inhibition. In the case of `CC(=O)C1=C(O)C=C2Oc3c(C(=O)C[S+]([O-])c4nc5ccccc5s4)c(O)c(C)c(O)c3[C@@]2(C)C1=O` (stereo partly drawn) [10a, (2R)-4-acetyl-10-[2-(1,3-benzothiazole-2-sulfinyl)acetyl]-5,11,13-trihydroxy-2,12-dimethyl-8-oxatricyclo[7.4.0.0^2,7]trideca-1(13),4,6,9,11-pentaen-3-one], in the experiment on HeLa cells (HeLa cells), the “Synergy with Tpc (in words)” value is on record as “promising synergy”. The CC50 with HeLa cells (Homo sapiens, HeLa, 10a titrated with fixed 2 μM Tpc, read-out: CC50 of 10a with Tpc) came to 3000 nM. For the same compound, the IC50 on TDP1 (real-time fluorescent assay, 1.5 nM TDP1, 50 nM oligonucleotide, read-out: IC50 (TDP1)) was determined as 2100 ± 200 nM.

On to `CC(=O)c1c(O)c(C)c(O)c2c1OC1=CC(=O)C(C(C)=O)C(=O)C12C` (centres unmarked) [UA, usnic acid], for which the IC50 on TDP1 is above 50000 nM. Besides, the “TDP1 inhibition (in words)” value on TDP1 (in the concentration range of the derivatives' IC50) is given as “does not inhibit TDP1”.
